Here are results for one molecule from patent publication US20090232917A1, “COMPOSITION FOR RELIEVING SUBJECTIVE SYMPTOMS OF FATIGUE” (Kyowa Hakko Kogyo Co., Ltd., priority 2005, published 2009).

The assay deals with normal subjects (subjective symptoms of fatigue). Kind of assay: Test Example 1: subjective symptoms of fatigue by visual analogue scale (VAS) method, tablets for 3 weeks. The settings on record: 6 tablets of Example 1 per day for 3 weeks. The assay is classed as in vivo, human. On the procedure:
A test was carried out as follows. […] Evaluation was carried out in terms of the subjective symptoms of fatigue in the test subjects at the start and completion of the test using a visual analogue scale (VAS) method.
Specifically, each end of the segment has a criterion of expression. Referring to FIG. 1 or 2, each subject was allowed to mark somewhere in the segment, corresponding to each term of the questionnaires. Among the subjective symptoms of fatigue, questionnaires 1 to 8 represent indices related to “drowsiness and dullness”, and questionnaires 9 to 15 represent indices related to “difficulty in concentration”.
The distance (mm) from the left end of the segment to the marked point was measured and the difference between before and after the test was calculated. The difference by the value before the test was shown in the percentage calculated; and the average value and standard deviation for each group were calculated. […] Further, it was confirmed that there was no difference between two groups at the start of the test.
Further, the test was carried out under a random assignment and the comparison between the double blind parallel groups was carried out.

Molecules are shown by their SMILES.

With `Cl.NCCC[C@H](N)C(=O)O` [ornithine, ornithine hydrochloride], the “relieving effect on subjective symptoms of fatigue, all terms (drowsiness and dullness; difficulty in concentration)” value (VAS questionnaires 1 to 15, versus placebo group, FIG. 3 and 4) is given as “relieving effect”. The “"having difficulty thinking": difference between the placebo group and the ornithine group” value (VAS, unpaired t-test) is recorded as “significant difference”.
